According to patent publication US9873705B2, “Vinylogous thioester compounds and methods of use” (THE TRUSTEES OF DARTMOUTH COLLEGE, priority 2015, dated 2018):
Entries after “also recorded” stand apart in the source; their conditions may differ.

Legend:
[1] = system: ira2Δ yeast (NF1 deficient yeast); test: Yeast growth inhibition (dose response) assay, OD600; type: cell-based, Saccharomyces cerevisiae; conditions: isogenic yeast system; 0 to 100 μM, 18 h
From the text: A high-throughput screen was used to identify compounds that are synthetically lethal with NF1 loss (14). A synthetic lethal interaction occurs when loss of two genes due to genetic deletion or pharmacologic inhibition is nonlethal independently but is lethal in combination (FIG. 1) (17). The first gene lost is NF1, and the loss of the second gene is mimicked through treatment with the screened compounds. The screen used Saccharomyces cerevisiae lacking IRA2 (ira2Δ), a yeast homologue of NF1, as a model for NF1 loss. ira2Δ yeast have increased RAS-GTP, which in turn activates MAPK and PKA pathways that mimic the pathways that are increased in NF1 deficient Schwann cells (18). […]
Candidate compounds were screened in ira2Δ yeast cells to identify target compounds synthetically lethal to NF1 loss. Growth inhibition of yeast was measured using the optical density of yeast cultures treated with compounds compared to DMSO control (14).
Growth inhibition assays as described above were performed on ira2Δ yeast cells and NF1-deficient glioblastoma cells. […] Following 18 h treatment, OD600 was measured using a THERMOmax (Molecular Devices) microplate reader and SOFTmax Pro 4.3 LS software. […] AlamarBlue fluorescence was determined with a Spectramax M2 (Molecular Devices) plate reader at an excitation of 544 nm and an emission of 590 nm using SoftMax Pro 3 software. […]

ROS in U87-MG cells = test: ROS detection by DCF-DA immunofluorescence; type: cell-based, human; conditions: Y102 2.2 or 4.5 μM 24 h, S1 20 μM 1 h, vs DMSO
Protocol: Damaged mitochondria generate and accumulate reactive oxygen species (ROS), which are damaging to the cell. RAS dysregulated tumors are reported to depend on autophagy in order to remove the damaged mitochondria and allow for their survival (22). […] The ROS detection reagent DCF-DA, which is converted to its fluorescent form DCF upon ROS-mediated oxidation, was used to examine if ROS levels increase with Y102 treatment.
The data for FIG. 5 was obtained as follows: U87-MG cells were plated on poly-D-lysine (Neuvitro Corporation) coated coverslips at a concentration of 50,000 cells/well in a 24-well plate and allowed to adhere overnight. Cells were treated for 24 h with DMSO, 2.2 μM Y102, or 4.5 μM Y102, or for 1 h with 20 μM S1. 30 minutes prior to treatment end, cells were stained with 20 μM 2′, 7′-dichlorofluorescin diacetate (DCFDA, Sigma, green) at 37° C. Following staining, cells were fixed for 10 minutes with 3.7% formaldehyde. After an additional two washes with PBST, cell nuclei were stained with 0.33 μg/mL DAPI (Molecular Probes) for 30 minutes (blue). Coverslips were mounted on glass slides with ProLong Gold antifade medium. Wide-field images were taken with a Zeiss Imager Z1 wide-field microscope using a 40×1.3 NA EC Plan-NEOFLUAR objective and Zeiss Axiovision software. Scale bar, 20 μm.

[2] = system: BNIP3L/Nix in NF1+/+ and NF1−/− IMEC CRISPR cells; test: BNIP3L/Nix immunofluorescence; type: cell-based; conditions: 1 μM, 24 h, NF1−/− vs NF1+/+ IMEC CRISPR cells, vs DMSO
From the text: Mitochondria can also be removed via non-selective autophagy (21). To distinguish between inhibition of mitophagy and not non-selective autophagy, expression and localization of one mitophagy-specific receptors involved in […] mitophagy, BNIP3L/Nix, was examined via immunofluorescence (25) (FIG. 10). BNIP3 and its homologue BNIP3L/NIX are involved in hypoxia-induced mitophagy and are transcriptionally regulated through HIF in human cancers (27). BNIP3-mediated mitophagy is also reported to occur following perinuclear clustering and fragmentation of the mitochondria (28,29). Under hypoxic conditions, both BNIP3 and FUNDC1 are reported to localize to the outer mitochondrial membrane (30). Therefore, if mitophagy is inhibited with Y102 under hypoxic conditions, BNIP3, NIX/BNIP3L, and/or FUNDC1 should accumulate if Y102 inhibits […] mitophagy following receptor localization.
CRISPR technology was used to introduce mutated NF1 into mammalian IMEC cells in order to generate an isogenic system for the testing of compounds that mimics the yeast isogenic system used in the original screens.
The data for FIG. 10 was obtained as follows: NF1+/+ and NF1−/− IMEC CRISPR cells were plated on poly-L-lysine (Sigma) coated coverslips at a concentration of 50,000 cells/well in a 24-well plate and allowed to adhere overnight. […]

U-87-MG = test: Glioblastoma cell growth, Alamar Blue, 3 or 7 days; type: cell-based, human; conditions: 3.9×10^-8 M to 2×10^-5 M
Protocol: (§1) 1000 cells in logarithmic phase were seeded per well (96 well plates) on day zero. The cells were treated for either 3 (red) or 7 (blue) days at a concentration range between 3.9×10^-8 M and 2×10^-5 M. Growth was assayed by the Alamar Blue method.

U251-MG = test: Glioblastoma cell growth, Alamar Blue, 3 or 7 days; type: cell-based, human; conditions: 3.9×10^-8 M to 2×10^-5 M
Protocol: as §1

## Cn1cnnc1S/C=C/C(=O)c1ccc(F)cc1 [Y102]
[1]
  sensitivity of NF1 deficient yeast (growth): selectively sensitive
ROS in U87-MG cells
  ROS accumulation (DCF-DA): ROS were found to accumulate; also recorded: accumulation of ROS
[2]
  BNIP3L/Nix accumulation (mitophagy receptor): perinuclear clustering of the mitophagy receptor BNIP3L/NIX was observed; also recorded: accumulated with Y102 treatment moreso in NF1−/− cells than in NF1+/+ cells
U-87-MG
  sensitivity of U-87-MG (growth): sensitive
U251-MG
  sensitivity of U251-MG (growth): sensitive
